Laboratory results from ChEMBL document CHEMBL5649165, “The E3 ligase Cbl-b and TAM receptors regulate cancer metastasis via natural killer cells” (Nature, 2014).
Active and inactive are the calls of the source. No cut-off for these calls is given here.

Experiments:
B16-F10 [1] = assay: Antitumor activity against mouse B16-F10 cells xenografted in Cbl-b defective mouse assessed as reduction in melanoma metastases at 0.5 mg/L, po administered for 16 days by haematoxylin and eosin staining based microscope analysis; assay type: functional, organism-based; conditions: time 16.0 day
B16-F10 [2] = assay: Antitumor activity against mouse B16-F10 cells xenografted in Cbl-b+/+ mouse assessed as reduction in melanoma metastases in lungs at 0.5 mg/L, po administered for 16 days by haematoxylin and eosin staining based microscope analysis; assay type: functional, organism-based; conditions: time 16.0 day
B16-F10 [3] = assay: Antitumor activity against mouse B16-F10 cells xenografted in Cbl-b+/+ mouse assessed as coagulation at 0.5 mg/L, po administered for 16 days by coagulometer analysis; assay type: functional, organism-based; conditions: time 16.0 day
4T1 = assay: Anticoagulant activity against mouse 4T1 cells xenografted in Balb/c mouse assessed as prothrombin time at 0.5 mg/L, po administered for 16 days by coagulometer analysis (reference value: 15.10 +/- 1.46 sec); assay type: functional; conditions: time 16 day
B16-F10 [4] = assay: Antitumor activity against mouse B16-F10 cells xenografted in Cbl-b+/- mouse assessed as reduction in melanoma metastases in lungs at 0.5 mg/L, po administered for 16 days by haematoxylin and eosin staining based microscope analysis; assay type: functional, organism-based; conditions: time 16.0 day
B16-F10 [5] = assay: Antitumor activity against mouse B16-F10 cells xenografted in Cbl-b+/- mouse assessed as coagulation at 0.5 mg/L, po administered for 16 days by coagulometer analysis; assay type: functional, organism-based; conditions: time 16.0 day
RMA-S [6] = assay: Cytotoxicity against RMA-S cells overexpressing Rae1 in Cbl-b+/+ mouse by flow cytometry analysis; assay type: functional, cell-based
RMA-S [7] = assay: Cytotoxicity against RMA-S cells in Cbl-b+/+ mouse by flow cytometry analysis; assay type: functional, cell-based
[8] = target: T1, Tyrosine-protein kinase Mer (Homo sapiens, UniProt Q12866)
T1 sequence (Q12866 whole entry): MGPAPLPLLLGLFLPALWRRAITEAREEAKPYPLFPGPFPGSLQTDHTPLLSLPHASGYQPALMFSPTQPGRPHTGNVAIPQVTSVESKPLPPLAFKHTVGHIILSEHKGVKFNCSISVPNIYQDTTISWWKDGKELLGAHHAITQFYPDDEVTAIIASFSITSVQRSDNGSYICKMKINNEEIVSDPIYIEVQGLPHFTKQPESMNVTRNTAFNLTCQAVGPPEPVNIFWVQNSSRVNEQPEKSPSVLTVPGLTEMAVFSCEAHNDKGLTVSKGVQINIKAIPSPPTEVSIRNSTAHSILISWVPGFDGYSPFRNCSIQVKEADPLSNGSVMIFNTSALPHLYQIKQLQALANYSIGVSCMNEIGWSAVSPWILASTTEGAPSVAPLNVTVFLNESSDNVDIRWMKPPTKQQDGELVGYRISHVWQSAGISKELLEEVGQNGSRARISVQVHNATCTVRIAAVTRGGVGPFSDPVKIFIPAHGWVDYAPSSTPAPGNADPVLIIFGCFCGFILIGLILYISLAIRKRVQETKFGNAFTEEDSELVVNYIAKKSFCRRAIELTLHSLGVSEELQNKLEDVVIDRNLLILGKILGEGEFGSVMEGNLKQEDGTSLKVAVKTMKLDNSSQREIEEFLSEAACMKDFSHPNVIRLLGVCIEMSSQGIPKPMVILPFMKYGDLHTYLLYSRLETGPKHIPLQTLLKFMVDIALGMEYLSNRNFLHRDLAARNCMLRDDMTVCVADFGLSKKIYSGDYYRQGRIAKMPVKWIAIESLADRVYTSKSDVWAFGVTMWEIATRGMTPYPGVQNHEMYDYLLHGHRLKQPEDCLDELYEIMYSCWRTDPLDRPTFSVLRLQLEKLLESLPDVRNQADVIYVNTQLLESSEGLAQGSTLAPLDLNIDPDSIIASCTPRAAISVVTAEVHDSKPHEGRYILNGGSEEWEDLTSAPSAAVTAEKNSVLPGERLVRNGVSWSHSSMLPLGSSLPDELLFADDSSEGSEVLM

Aurora kinase B = Aurora kinase B (Homo sapiens, UniProt Q96GD4)
Chain of Aurora kinase B (Q96GD4 whole entry): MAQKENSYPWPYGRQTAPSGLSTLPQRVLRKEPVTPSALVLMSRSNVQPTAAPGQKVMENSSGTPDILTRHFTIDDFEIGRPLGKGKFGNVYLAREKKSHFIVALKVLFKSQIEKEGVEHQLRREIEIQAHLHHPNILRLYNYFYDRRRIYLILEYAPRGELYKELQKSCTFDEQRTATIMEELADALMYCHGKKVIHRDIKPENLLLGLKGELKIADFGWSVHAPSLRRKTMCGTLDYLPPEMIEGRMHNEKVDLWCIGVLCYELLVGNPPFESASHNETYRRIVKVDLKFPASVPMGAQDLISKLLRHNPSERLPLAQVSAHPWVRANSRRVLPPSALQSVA

[9] = target: T2, Proto-oncogene tyrosine-protein kinase Src (Homo sapiens, UniProt P12931); assay: biochemical
T2 sequence (P12931 whole entry, looked up): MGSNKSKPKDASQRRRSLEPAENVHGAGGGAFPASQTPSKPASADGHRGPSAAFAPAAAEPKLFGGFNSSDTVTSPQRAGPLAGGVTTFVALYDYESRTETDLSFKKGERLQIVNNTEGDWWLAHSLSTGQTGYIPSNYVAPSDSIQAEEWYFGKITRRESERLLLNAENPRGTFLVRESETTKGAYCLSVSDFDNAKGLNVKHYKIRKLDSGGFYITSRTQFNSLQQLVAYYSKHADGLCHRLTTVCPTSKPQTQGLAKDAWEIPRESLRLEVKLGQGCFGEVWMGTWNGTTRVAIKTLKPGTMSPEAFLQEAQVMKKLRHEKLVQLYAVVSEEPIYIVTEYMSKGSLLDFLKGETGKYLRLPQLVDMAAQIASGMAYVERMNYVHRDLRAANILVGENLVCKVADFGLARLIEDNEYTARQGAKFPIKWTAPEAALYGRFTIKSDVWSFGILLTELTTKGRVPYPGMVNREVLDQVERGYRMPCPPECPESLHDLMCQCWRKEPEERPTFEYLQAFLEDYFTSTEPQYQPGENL

[10] = target: Tyrosine-protein kinase Lck (Homo sapiens, UniProt P06239)
Chain of Tyrosine-protein kinase Lck (P06239 whole entry): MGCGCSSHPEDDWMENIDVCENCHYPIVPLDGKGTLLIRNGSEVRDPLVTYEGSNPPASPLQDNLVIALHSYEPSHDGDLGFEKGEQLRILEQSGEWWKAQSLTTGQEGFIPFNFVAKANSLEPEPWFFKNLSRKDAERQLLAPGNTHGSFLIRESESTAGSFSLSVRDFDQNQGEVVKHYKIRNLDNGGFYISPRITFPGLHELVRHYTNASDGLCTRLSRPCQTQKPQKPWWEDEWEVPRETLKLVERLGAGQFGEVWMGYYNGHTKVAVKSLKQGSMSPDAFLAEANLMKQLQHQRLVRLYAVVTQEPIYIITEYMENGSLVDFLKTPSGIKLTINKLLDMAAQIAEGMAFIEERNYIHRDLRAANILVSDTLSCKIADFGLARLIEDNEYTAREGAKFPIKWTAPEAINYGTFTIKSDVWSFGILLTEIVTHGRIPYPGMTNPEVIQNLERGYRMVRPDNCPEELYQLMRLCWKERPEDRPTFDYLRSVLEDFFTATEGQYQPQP

[11] = target: Cyclin-dependent kinase 8 (Homo sapiens, UniProt P49336)
Chain of Cyclin-dependent kinase 8 (P49336 whole entry): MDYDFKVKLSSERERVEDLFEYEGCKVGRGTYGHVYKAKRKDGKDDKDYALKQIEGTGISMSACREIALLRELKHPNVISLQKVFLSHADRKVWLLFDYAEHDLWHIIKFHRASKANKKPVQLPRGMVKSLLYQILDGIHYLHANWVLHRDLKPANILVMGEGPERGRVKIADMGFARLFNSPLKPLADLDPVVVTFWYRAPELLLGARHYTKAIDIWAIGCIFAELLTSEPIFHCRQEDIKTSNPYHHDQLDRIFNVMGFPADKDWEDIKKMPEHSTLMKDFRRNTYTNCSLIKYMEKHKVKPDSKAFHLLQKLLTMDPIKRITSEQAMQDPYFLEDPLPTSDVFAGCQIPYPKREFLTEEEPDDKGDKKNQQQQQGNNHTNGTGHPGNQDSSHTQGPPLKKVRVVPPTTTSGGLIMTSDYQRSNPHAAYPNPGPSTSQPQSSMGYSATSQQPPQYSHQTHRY

[12] = target: T3, Dual specificity mitogen-activated protein kinase kinase 5 (Homo sapiens, UniProt Q13163); assay: biochemical
T3 sequence (Q13163 whole entry): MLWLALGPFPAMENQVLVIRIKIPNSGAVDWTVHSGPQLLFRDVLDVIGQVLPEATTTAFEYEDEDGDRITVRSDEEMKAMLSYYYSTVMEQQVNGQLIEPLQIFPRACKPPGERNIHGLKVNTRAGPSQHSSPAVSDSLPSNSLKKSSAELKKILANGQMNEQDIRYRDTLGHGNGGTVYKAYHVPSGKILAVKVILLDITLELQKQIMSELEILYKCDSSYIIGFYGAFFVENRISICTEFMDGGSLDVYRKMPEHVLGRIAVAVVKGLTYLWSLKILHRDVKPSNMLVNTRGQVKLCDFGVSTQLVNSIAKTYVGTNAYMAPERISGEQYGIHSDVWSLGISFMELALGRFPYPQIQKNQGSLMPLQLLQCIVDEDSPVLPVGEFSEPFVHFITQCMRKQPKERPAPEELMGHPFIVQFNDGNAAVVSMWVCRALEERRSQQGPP

[13] = target: Hepatocyte growth factor receptor (Homo sapiens, UniProt P08581)
Chain of Hepatocyte growth factor receptor (P08581 whole entry): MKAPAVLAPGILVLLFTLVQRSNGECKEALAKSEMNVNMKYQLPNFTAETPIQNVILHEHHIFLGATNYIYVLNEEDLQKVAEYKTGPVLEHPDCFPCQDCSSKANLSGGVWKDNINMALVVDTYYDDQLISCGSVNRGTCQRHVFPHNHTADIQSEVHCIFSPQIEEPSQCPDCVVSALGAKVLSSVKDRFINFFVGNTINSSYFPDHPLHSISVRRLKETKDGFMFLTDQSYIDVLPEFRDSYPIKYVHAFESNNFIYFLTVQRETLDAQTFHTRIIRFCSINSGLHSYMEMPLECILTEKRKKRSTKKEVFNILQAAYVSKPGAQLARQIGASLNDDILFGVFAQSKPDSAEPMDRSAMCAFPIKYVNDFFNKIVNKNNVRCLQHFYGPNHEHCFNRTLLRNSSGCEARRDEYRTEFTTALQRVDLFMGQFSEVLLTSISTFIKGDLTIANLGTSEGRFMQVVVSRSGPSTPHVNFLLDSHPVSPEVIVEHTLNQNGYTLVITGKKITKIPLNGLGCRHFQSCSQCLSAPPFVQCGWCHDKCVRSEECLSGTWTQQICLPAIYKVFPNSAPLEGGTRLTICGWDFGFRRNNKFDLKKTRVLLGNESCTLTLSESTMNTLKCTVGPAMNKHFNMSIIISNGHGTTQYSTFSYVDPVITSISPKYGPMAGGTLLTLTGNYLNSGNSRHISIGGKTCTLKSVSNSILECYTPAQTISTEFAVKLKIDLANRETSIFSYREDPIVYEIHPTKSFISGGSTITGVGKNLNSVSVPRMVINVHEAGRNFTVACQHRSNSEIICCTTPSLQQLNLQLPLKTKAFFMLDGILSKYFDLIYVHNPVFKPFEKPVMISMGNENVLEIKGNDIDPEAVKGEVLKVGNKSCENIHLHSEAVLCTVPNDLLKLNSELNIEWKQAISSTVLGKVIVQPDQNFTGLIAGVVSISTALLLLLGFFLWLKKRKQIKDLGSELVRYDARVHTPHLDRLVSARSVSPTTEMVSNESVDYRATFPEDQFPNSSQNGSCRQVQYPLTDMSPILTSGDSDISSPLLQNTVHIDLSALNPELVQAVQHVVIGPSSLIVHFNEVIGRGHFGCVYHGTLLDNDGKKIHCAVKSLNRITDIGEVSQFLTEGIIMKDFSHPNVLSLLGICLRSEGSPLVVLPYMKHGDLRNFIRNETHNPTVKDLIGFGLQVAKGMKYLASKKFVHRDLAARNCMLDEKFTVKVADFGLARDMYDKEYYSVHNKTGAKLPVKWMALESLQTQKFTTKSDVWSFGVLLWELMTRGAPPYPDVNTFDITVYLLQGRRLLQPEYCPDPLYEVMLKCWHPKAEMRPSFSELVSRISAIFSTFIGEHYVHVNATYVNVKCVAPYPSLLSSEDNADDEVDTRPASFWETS

[14] = target: Tyrosine-protein kinase Fer (Homo sapiens, UniProt P16591); assay: biochemical
[15] = target: T2, Proto-oncogene tyrosine-protein kinase Src
[16] = target: Tyrosine-protein kinase ABL1 (Homo sapiens, UniProt P00519); assay: biochemical
Chain of Tyrosine-protein kinase ABL1 (P00519 whole entry): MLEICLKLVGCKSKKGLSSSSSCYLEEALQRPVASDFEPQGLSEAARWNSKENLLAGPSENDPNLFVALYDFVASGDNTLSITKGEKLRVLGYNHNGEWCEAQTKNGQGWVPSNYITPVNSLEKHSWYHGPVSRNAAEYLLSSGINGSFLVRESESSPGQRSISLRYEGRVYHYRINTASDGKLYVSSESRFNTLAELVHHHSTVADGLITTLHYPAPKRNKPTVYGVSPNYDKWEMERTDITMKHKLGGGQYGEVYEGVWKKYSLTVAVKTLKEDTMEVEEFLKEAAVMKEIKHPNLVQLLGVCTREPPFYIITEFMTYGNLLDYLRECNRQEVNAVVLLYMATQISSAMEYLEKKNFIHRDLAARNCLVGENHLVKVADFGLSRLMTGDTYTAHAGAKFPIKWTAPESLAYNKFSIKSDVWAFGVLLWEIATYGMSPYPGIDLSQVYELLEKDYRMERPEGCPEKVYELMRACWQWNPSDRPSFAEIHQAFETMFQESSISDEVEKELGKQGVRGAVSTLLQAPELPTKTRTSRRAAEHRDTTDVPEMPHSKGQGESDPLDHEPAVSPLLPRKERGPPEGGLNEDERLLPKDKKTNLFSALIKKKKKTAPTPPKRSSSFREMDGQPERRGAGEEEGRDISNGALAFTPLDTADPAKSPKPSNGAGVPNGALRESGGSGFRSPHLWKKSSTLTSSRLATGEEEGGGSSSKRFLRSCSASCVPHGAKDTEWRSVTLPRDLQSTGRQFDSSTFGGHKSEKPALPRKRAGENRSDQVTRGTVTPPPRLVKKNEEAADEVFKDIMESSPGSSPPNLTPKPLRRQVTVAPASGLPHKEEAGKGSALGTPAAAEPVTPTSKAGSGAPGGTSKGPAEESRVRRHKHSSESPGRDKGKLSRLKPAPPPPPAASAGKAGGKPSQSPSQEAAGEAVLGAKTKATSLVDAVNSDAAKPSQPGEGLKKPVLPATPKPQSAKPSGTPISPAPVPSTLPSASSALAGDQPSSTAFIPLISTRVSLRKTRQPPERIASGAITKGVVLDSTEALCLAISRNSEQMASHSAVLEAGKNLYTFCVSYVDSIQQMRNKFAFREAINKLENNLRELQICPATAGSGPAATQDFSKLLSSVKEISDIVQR

SMILES: CC(=O)CC(c1ccccc1)c1c(O)c2ccccc2oc1=O (stereo not drawn) [WARFARIN]
- Activity (B16-F10 [1]): inactive
- Activity (B16-F10 [2]): Active
- Activity (B16-F10 [3]): Active
- PT (4T1): 19.13 s
- Activity (B16-F10 [4]): Active
- Activity (B16-F10 [5]): Active
- Activity (RMA-S [6]): Active
- Activity (RMA-S [7]): Active

SMILES: CCOc1cn(-c2ccc(F)cc2C)nc1C(=O)Nc1ccc(Oc2ccnc3cc(OC)c(OC)cc23)c(F)c1
- IC50 [8]: < 5 nM
- IC50 (Aurora kinase B): 36 nM
- Kd [9]: 217 nM
- IC50 [10]: 51 nM
- IC50 [11]: 3170 nM
- Kd [12]: 124 nM
- IC50 [13]: 35 nM
- Kd [14]: 107 nM
- IC50 [15]: 338 nM
- Kd [16]: 154 nM
